Measured values taken from article PMC6792352, “Limited Chemical Structural Diversity Found to Modulate Thyroid Hormone Receptor in the Tox21 Chemical Library” (Environmental Health Perspectives, 2019).
Structures can show the parent of a compound that is named as a salt. Where two headings read alike, the source gives them in different places.

System: GH3-TRE-Luc cell line
Conditions: read-out: AC50 (uM) modified / 1000, viability, 1 nM T3 present, 24 h

For `O=C1C2CC=CCC2C(=O)N1SC(Cl)(Cl)Cl` (stereo not shown) [Captan], which CC50 (Tox21_110001=Tox21_111065) is on record?
Its CC50 is 4.99 µM.

What about the CC50 (Tox21_110001=Tox21_201276) of the same compound?
Its CC50 is 76 µM.

What about the CC50 (Tox21_110001=Tox21_300772) of the same compound?
Its CC50 is 2.54 µM.

Which CC50 (Tox21_110001=Tox21_110120) does the source give for `CN(C)CCCN1c2ccccc2Sc2ccc(Cl)cc21` [Chlorpromazine] here?
Its CC50 is 8.03 µM.

Which results are given for `COc1ccc(C(=O)CC(=O)c2ccc(C(C)(C)C)cc2)cc1` [1-(4-tert-Butylphenyl)-3-(4-methoxyphenyl)propane-1,3-dione]?
CC50 (Tox21_110001=Tox21_111427): 24.3 µM; CC50 (Tox21_110001=Tox21_202796): 71.9 µM

With `CC/C(=C(\c1ccc(O)cc1)c1ccc(OCCN(C)C)cc1)c1ccccc1` [(Z)-4-Hydroxytamoxifen] as the compound, how does the CC50 (Tox21_110001=Tox21_200943) read?
Its CC50 is 5.77 µM.

Which CC50 (Tox21_110001=Tox21_202525) does the source give for `CN(C)c1ccc2nc3ccc(=[N+](C)C)cc-3sc2c1` [Methylene Blue trihydrate] here?
Its CC50 is 27.1 µM.

How did the CC50 (Tox21_110001=Tox21_202623) turn out when `CCCCCCCCCCn1cc[n+](C)c1` [1-Decyl-3-methylimidazolium chloride] was run?
The CC50 was 22.3 µM.

Which CC50 (Tox21_110001=Tox21_200596) does the source give for `CCCCCCCCCCCCn1cc[n+](C)c1` [1-Dodecyl-3-methylimidazolium hexafluorophosphate] here?
Its CC50 is 4.11 µM.

How did the CC50 (Tox21_110001=Tox21_111184) turn out when `NCCNc1cccc2ccccc12` [N-(1-Naphthyl)ethylenediamine dihydrochloride] was run?
Its CC50 is 10.9 µM.

And the CC50 (Tox21_110001=Tox21_201928)?
The CC50 was 37 µM.

What about the CC50 (Tox21_110001=Tox21_302783) of the same compound?
The CC50 was 26 µM.

For `CCN1/C(=C/C=C/C=C/c2sc3ccccc3[n+]2CC)Sc2ccccc21` [Dithiazanine chloride], which CC50 (Tox21_110001=Tox21_113171) is on record?
The CC50 was 7.02 µM.

Which CC50 (Tox21_110001=Tox21_111422) does the source give for `O=C(OC[C@H]1O[C@@H](OC(=O)c2cc(O)c(O)c(OC(=O)c3cc(O)c(O)c(O)c3)c2)[C@H](OC(=O)c2cc(O)c(O)c(OC(=O)c3cc(O)c(O)c(O)c3)c2)[C@@H](OC(=O)c2cc(O)c(O)c(OC(=O)c3cc(O)c(O)c(O)c3)c2)[C@@H]1OC(=O)c1cc(O)c(O)c(OC(=O)c2cc(O)c(O)c(O)c2)c1)c1cc(O)c(O)c(OC(=O)c2cc(O)c(O)c(O)c2)c1` [Tannic acid] here?
Its CC50 is 3.05 µM.

And the CC50 (Tox21_110001=Tox21_300079)?
Its CC50 is 15.7 µM.

For `COc1cc([C@@H]2c3cc4c(cc3[C@H](O)[C@H]3COC(=O)[C@H]23)OCO4)cc(OC)c1OC` [Podofilox], which CC50 (Tox21_110001=Tox21_202922) is on record?
Its CC50 is 0.0227 µM.

Which CC50 (Tox21_110001=Tox21_202630) does the source give for `CCCCCCCCCCCCn1cc[n+](C)c1` [1-Dodecyl-3-methylimidazolium trifluoromethanesulfonate] here?
Its CC50 is 3.74 µM.

For `O=C(O)CCCC(=O)O` [Glutaric acid], which CC50 (Tox21_110001=Tox21_302871) is on record?
Its CC50 is 35.4 µM.

Which CC50 (Tox21_110001=Tox21_400014) does the source give for `Nc1ccccc1N` [1,2-Phenylenediamine] here?
Its CC50 is 73.8 µM.

With `CC/N=c1\cc2oc3cc(NCC)c(C)cc3c(-c3ccccc3C(=O)OCC)c-2cc1C` [Rhodamine 6G] as the compound, how does the CC50 (Tox21_110001=Tox21_201597) read?
The CC50 was 0.49 µM.

What about the CC50 (Tox21_110001=Tox21_302898) of the same compound?
Its CC50 is 1.44 µM.

Which CC50 (Tox21_110001=Tox21_113525) does the source give for `O=C1Cc2cc(CCN3CCN(c4nsc5ccccc45)CC3)c(Cl)cc2N1` [Ziprasidone] here?
The CC50 was 15.3 µM.

`CC(=O)O[C@@]12CO[C@@H]1C[C@H](O)[C@@]1(C)C(=O)[C@H](O)C3=C(C)[C@@H](OC(=O)[C@H](O)[C@@H](NC(=O)OC(C)(C)C)c4ccccc4)C[C@@](O)([C@@H](OC(=O)c4ccccc4)[C@H]21)C3(C)C` [Docetaxel] was tested. Which CC50 (Tox21_110001=Tox21_112781) did it give?
The CC50 was 0.0619 µM.

And the CC50 (Tox21_110001=Tox21_113088)?
The CC50 was 0.364 µM.

`NC(N)=O` [Carbamide peroxide] was tested. Which CC50 (Tox21_110001=Tox21_302451) did it give?
The CC50 was 69 µM.

With `NCCc1ccc(O)c(O)c1` [Dopamine] as the compound, how does the CC50 (Tox21_110001=Tox21_110167) read?
The CC50 was 37 µM.

`Nc1ncn([C@@H]2O[C@H](CO)[C@@H](O)[C@H]2O)c(=O)n1` [5-Azacytidine] was tested. Which CC50 (Tox21_110001=Tox21_111032) did it give?
The CC50 was 5.77 µM.

And the CC50 (Tox21_110001=Tox21_302985)?
The CC50 was 19.3 µM.

With `Oc1c(Cl)cc(Cl)cc1Sc1cc(Cl)cc(Cl)c1O` [Sodium bithionolate] as the compound, how does the CC50 (Tox21_110001=Tox21_202791) read?
The CC50 was 7.44 µM.

Which CC50 (Tox21_110001=Tox21_201834) does the source give for `CCc1nc(N)nc(N)c1-c1ccc(Cl)cc1` [Pyrimethamine] here?
The CC50 was over 90 µM.

And the CC50 (Tox21_110001=Tox21_300129)?
Its CC50 is 42.7 µM.

Which results are given for `COc1cc(/C=C/C(=O)CC(=O)/C=C/c2ccc(O)c(OC)c2)ccc1O` [Curcumin]?
CC50 (Tox21_110001=Tox21_110803): 22.1 µM; CC50 (Tox21_110001=Tox21_201116): 26.5 µM

With `CC/C(=C(\c1ccc(O)cc1)c1ccc(OCCN(C)C)cc1)c1ccccc1` [4-Hydroxytamoxifen] as the compound, how does the CC50 (Tox21_110001=Tox21_303657) read?
The CC50 was 2.62 µM.

Which CC50 (Tox21_110001=Tox21_111656) does the source give for `CN(C)C(=S)SC(=S)N(C)C` [Tetramethylthiuram monosulfide] here?
Its CC50 is 2.19 µM.

What about the CC50 (Tox21_110001=Tox21_201554) of the same compound?
Its CC50 is 1.5 µM.

What about the CC50 (Tox21_110001=Tox21_302880) of the same compound?
Its CC50 is 0.329 µM.

`c1ccc(C(O[C@@H]2CCCN(CCc3ccc4c(c3)OCO4)C2)c2ccccc2)cc1` [Zamifenacin] was tested. Which CC50 (Tox21_110001=Tox21_300210) did it give?
The CC50 was 40 µM.

Which CC50 (Tox21_110001=Tox21_202751) does the source give for `O=C(O)CS` [Ammonium thioglycolate] here?
The CC50 was 58.7 µM.

`N=C(N)c1ccc(OCCCCCOc2ccc(C(=N)N)cc2)cc1` [Pentamidine isethionate] was tested. Which CC50 (Tox21_110001=Tox21_110742) did it give?
Its CC50 is 23.4 µM.

What about the CC50 (Tox21_110001=Tox21_201722) of the same compound?
Its CC50 is 63.5 µM.

What about the CC50 (Tox21_110001=Tox21_300312) of the same compound?
Its CC50 is 41 µM.

Which CC50 (Tox21_110001=Tox21_301702) does the source give for `CCCCCCCCCCCCN` [Dodecylamine hydrochloride] here?
Its CC50 is 19.6 µM.

Which results are given for `CCCCC(CC)COC(=O)CC(C(=O)OCC(CC)CCCC)S(=O)(=O)O` (stereo not shown) [Docusate sodium]?
CC50 (Tox21_110001=Tox21_112087): 34.4 µM; CC50 (Tox21_110001=Tox21_113469): 18.8 µM; CC50 (Tox21_110001=Tox21_201342): 64.9 µM; CC50 (Tox21_110001=Tox21_300496): 57.2 µM

`CCN(CC)C(=S)SSC(=S)N(CC)CC` [Disulfiram] was tested. Which CC50 (Tox21_110001=Tox21_110280) did it give?
The CC50 was 19.9 µM.

And the CC50 (Tox21_110001=Tox21_300403)?
Its CC50 is 0.0747 µM.

And the CC50 (Tox21_110001=Tox21_400072)?
The CC50 was 81.5 µM.

For `CN(C)CCOc1ccccc1Cc1ccccc1` [Phentoloxamine PAS], which CC50 (Tox21_110001=Tox21_113232) is on record?
The CC50 was 25.5 µM.
